Three compounds from patent publication US20130115589A1, “Pharmaceutical Composition for Treatment and Prevention of Herpes Virus Infections” (THE UNIVERSITY OF TOKYO, priority 2010, published 2013) can be followed below.

In one experiment the test system is phosphorylation of RLC. The experiment in a line: Phosphorylation of RLC in Vero cells exposed to HSV-1, immunoblotting. The conditions noted are these: 20 μM ML-7, MOI=50. In general terms: Immunoblotting shows a protein as a band on a membrane.
In another experiment the test system is HSV-2 GFP. Nature of the experiment: HSV-2 GFP infection of Vero cells, flow cytometry. The conditions noted are these: Vero cells pretreated with ML-7. Type of experiment: cell-based, Herpes simplex virus 2. (In general: In flow cytometry, cells or beads pass a laser one at a time.)
The subject of experiment [1] is influenza virus. Type of experiment: cell-based.
The test system of experiment [2] is HSV-1 GFP. Type of experiment: cell-based, Herpes simplex virus 1 (HSV-1).
In another experiment the test system is NMHC-IIA. Type of experiment: cell-based. To be noted: Vero cells pretreated with ML-7.
For experiment [3], the system named is HSV-1 GFP. Type of experiment: cell-based, Herpes simplex virus 1 (HSV-1). To be noted: for HSV entry into Vero cells (relative fluorescence intensity): 30 minutes pretreatment, ML-7 20 μM, ACC 40 μM.
Another experiment has as its system HSV-1(F). The experiment in a line: Murine corneal infection model. The experiment is classed as in vivo, ICR mice. Here is the method:
After the cornea of ICR mice (female/5-week-old) was slightly injured with an injection needle, a medium containing or not containing 20 μM ML-7 was instilled in the eye twice with an interval of 10 minutes. After incubation for 10 minutes, an HSV-1(F) strain was inoculated at 5×10^5 PFU/eye. The virus titer in the tear, symptoms of keratitis, and survival of mice were studied.
After the cornea of 28 ICR mice (female/5-week-old) per group was injured with an injection needle, a 20 μM medium containing or not containing ML-7 and 5×10^5 HSV-1(F) diluted in Medium199 were simultaneously instilled in their eye, followed by observation for 21 days.
After the cornea of 28 ICR mice (female/5-week-old) per group was injured with an injection needle, a 50 μM BAPTA-AM was instilled in their eye twice with an interval of 10 minutes. After incubation for 10 minutes, 5×10^5 HSV-1(F) diluted in Medium 199 was instilled in their eye, followed by observation for 21 days. In Mock-treated group, 0.2% DMSO in Medium 199 was used instead of 50 μM BAPTA-AM.

Another experiment concerns NMHC-IIB. Nature of the experiment: NMHC-IIB at the cell surface of HSV-1(F)-infected Cos-1 cells, biotinylation, avidin precipitation, immunoblotting. To be noted: Cos-1 cells pretreated with ML-7, wild-type HSV-1(F).
Experiment [4] deals with influenza virus. Type of experiment: cell-based. The source holds these as a separate data set.

Like-named read-outs stand apart in the source and are kept apart here.

Regarding `O=S(=O)(c1cccc2c(I)cccc12)N1CCCNCC1` [ML-7], in the experiment with phosphorylation of RLC, the “enhancement of phosphorylation of RLC by HSV-1 infection” value is “inhibits this enhancement”. The “HSV-2 GFP infection” value in the experiment on HSV-2 GFP is “dose-independently inhibited”. Also, the influenza virus infection entry in the experiment with influenza virus [1] (Cos-1 cells pretreated with ML-7) and in the experiment on influenza virus [4] (Vero cells pretreated with ML-7) was “not influenced” each time. Moreover, the HSV-1 infection result with HSV-1 GFP [2] is “dose-independently inhibited”. For the same compound, the “increase in the concentration of NMHC-IIA in the vicinity of the cell membrane upon virus entry” value in the experiment on NMHC-IIA was “inhibited”. Also, in the experiment with HSV-1 GFP [3], the “Infection with HSV-1 GFP” value was “inhibited dose-dependently”. In addition, in the experiment on HSV-1 GFP [3] ([…]), the “HSV entry into Vero cells (relative fluorescence intensity)” value is given as “inhibited”. The “survival rate of mice” value in the experiment on HSV-1(F) (20 μM ML-7 instilled before infection) is “significant increase”; in the experiment with HSV-1(F) (20 μM ML-7 instilled simultaneously with HSV-1(F), observation 21 days), “further significant increase”. Moreover, in the experiment on HSV-1(F) (20 μM ML-7 instilled before infection, after five days, vs untreated mice), the symptoms of keratitis result was “significant decrease”. In the experiment with HSV-1(F) (20 μM ML-7 instilled before infection, two days after virus inoculation, vs untreated mice), the “virus titer in the tear” value is listed as “significant decrease”. Also, in the experiment on NMHC-IIB, the “concentration of NMHC-IIB in the vicinity of the cell membrane” value is on record as “decreased significantly”.

Consider `Nc1nc2c(ncn2COCCO)c(=O)[nH]1` [ACC, acyclovir], for which the “HSV entry into Vero cells (relative fluorescence intensity)” value with HSV-1 GFP [3] (HSV-1 GFP MOI=1, six hours after infection) is listed as “not inhibited”.

On to `CC(=O)OCOC(=O)CN(CC(=O)OCOC(C)=O)c1ccccc1OCCOc1ccccc1N(CC(=O)OCOC(C)=O)CC(=O)OCOC(C)=O` [BAPTA-AM], for which the “influence on influenza virus infection” value in the experiment with influenza virus [1] (Cos-1 cells, BAPTA-AM) was “not observed”. Also, the “MFI, HSV-1 GFP” value in the experiment with HSV-1 GFP [2] is “decreased in a BAPTA-AM concentration dependent manner”. In addition, the “mean fluorescence intensity (MFI), HSV-1 GFP” value in the experiment on HSV-1 GFP [3] is reported as “decreased in a BAPTA-AM concentration dependent manner”. Also, the survival rate entry with HSV-1(F) (50 μM BAPTA-AM instilled before infection, observation 21 days, vs Mock-treated group) is recorded as “significantly high”. Further, the “relative MFI, influenza virus” value with influenza virus [4] was “not influenced”.
